Data as given in ChEMBL document CHEMBL3045124, “Molecular docking and in silico studies on analogues of 2-methylheptyl isonicotinate with DHDPS enzyme of Mycobacterium tuberculosis” (2013).
In brackets after ≈: the same amount, converted by molar mass.

Key:
Assay type in all cases: functional
Bacillus subtilis [1] = assay: Antibacterial activity against Bacillus subtilis
Escherichia coli [2] = assay: Antibacterial activity against Escherichia coli
Proteus vulgaris = assay: Antimicrobial activity against Proteus vulgaris
[3] = tested on: Mycobacterium tuberculosis; assay: Antitubercular activity against Mycobacterium tuberculosis
Klebsiella sp. = assay: Antibacterial activity against Klebsiella sp. after 24 hr by agar cup assay
Shigella sp. = assay: Antibacterial activity against Shigella sp. after 24 hr by agar cup assay
Arthrobacter sp. = assay: Antibacterial activity against Arthrobacter sp. after 24 hr by agar cup assay
Proteus mirabilis = assay: Antibacterial activity against Proteus mirabilis after 24 hr by agar cup assay
Escherichia coli [4] = assay: Antibacterial activity against Escherichia coli after 24 hr by agar cup assay
Bacillus subtilis [5] = assay: Antibacterial activity against Bacillus subtilis after 24 hr by agar cup assay

Row | SMILES | MIC (Bacillus subtilis [1]) [µg/mL] | MIC (Escherichia coli [2]) [µg/mL] | MIC (Proteus vulgaris) [µg/mL] | MIC [3] [µg/mL] | MIC (Klebsiella sp.) [µg/mL] | MIC (Shigella sp.) [µg/mL] | MIC (Arthrobacter sp.) [µg/mL] | MIC (Proteus mirabilis) [µg/mL] | MIC (Escherichia coli [4]) [µg/mL] | MIC (Bacillus subtilis [5]) [µg/mL]
1 | CCCCOC(=O)c1ccncc1 [ISONICOTINIC ACID BUTYL ESTER] | 600 (≈ 3350 µM) | 600 (≈ 3350 µM) | 500 (≈ 2790 µM) | 280 (≈ 1560 µM) |  |  |  |  |  | 
2 | NNC(=O)c1ccncc1 [ISONIAZID] |  |  |  |  | 250 (≈ 1820 µM) | 300 (≈ 2190 µM) | 150 (≈ 1090 µM) | 200 (≈ 1460 µM) | 2520 (≈ 18400 µM) | 150 (≈ 1090 µM)
3 | CCCCCCCOC(=O)c1ccncc1 [ISONICOTINIC ACID HEPTYL ESTER] | 24 (≈ 108 µM) | 24 (≈ 108 µM) | 16 (≈ 72.3 µM) | 16 (≈ 72.3 µM) |  |  |  |  |  | 
4 | CCCCC[C@@H](C)COC(=O)c1ccncc1 [ISONICOTINIC ACID 2-METHYL-HEPTYL ESTER] | 16 (≈ 68 µM) | 16 (≈ 68 µM) | 6 (≈ 25.5 µM) | 10 (≈ 42.5 µM) |  |  |  |  |  | 
5 | CCCCCC(C)COC(=O)c1ccncc1 (centres undefined) [2-METHYL HEPTYL ISONICOTINATE] |  |  |  |  | 50 (≈ 212 µM) | 60 (≈ 255 µM) | 40 (≈ 170 µM) | 40 (≈ 170 µM) | 70 (≈ 297 µM) | 50 (≈ 212 µM)
6 | CCCCCCCCCCCCCCCCCCOC(=O)c1ccncc1 [ISONICOTINIC ACID OCTADECYL ESTER] | 600 (≈ 1600 µM) | 600 (≈ 1600 µM) | 560 (≈ 1490 µM) | 320 (≈ 852 µM) |  |  |  |  |  | 
7 | CCCCCCOC(=O)c1ccncc1 [ISONICOTINIC ACID HEXYL ESTER] | 50 (≈ 241 µM) | 50 (≈ 241 µM) | 36 (≈ 174 µM) | 24 (≈ 116 µM) |  |  |  |  |  | 
8 | CCCCC[C@H](C)COC(=O)c1ccncc1 [(S)-2-METHYLHEPTYL ISONICOTINATE] | 20 (≈ 85 µM) | 20 (≈ 85 µM) | 14 (≈ 59.5 µM) | 14 (≈ 59.5 µM) |  |  |  |  |  | 
9 | CCCCCOC(=O)c1ccncc1 [ISONICOTINIC ACID PENTYL ESTER] | 20 (≈ 103 µM) | 20 (≈ 103 µM) | 14 (≈ 72.4 µM) | 10 (≈ 51.7 µM) |  |  |  |  |  | 
10 | CCCCCCCCOC(=O)c1ccncc1 [ISONICOTINIC ACID OCTYL ESTER] | 16 (≈ 68 µM) | 16 (≈ 68 µM) | 6 (≈ 25.5 µM) | 8 (≈ 34 µM) |  |  |  |  |  | 
